One data set in a line: in vitro. Particulars: human, Caco-2, pH 7.4. On the procedure: Example 28: Caco-2 Permeability Assay
The goal of this assay was to evaluate the intestinal absorption potential of drug candidates using Caco-2 cell lines.
1. Prewarm Prewarm HBSS Buffer in 37° C. water bath
2. Sonicate Take compounds from −20° C., sonicate for a few minutes (no less than 1 minute)
HBSS buffer with 0.3% DMSO and 5 μM LY: add 150 μL DMSO and 50 μL LY (5 mM) into 50 ml HBSS buffer (pH 7.4).
HBSS buffer with 0.1% DMSO and 5 μM LY: add 50 μL DMSO and 50 μL LY (5 mM) into 50 mL HBSS buffer (pH 7.4).
HBSS buffer with 0.3% DMSO: add 150 μL DMSO into 50 ml HBSS buffer (pH 7.4).
HBSS buffer with 0.1% DMSO: add 50 μL DMSO into 50 ml HBSS buffer (pH 7.4).
Receiver Solution Buffer:
Prepare HBSS buffer with 0.4% DMSO: add 200 μL DMSO into 50 ml HBSS buffer (pH 7.4).
Prepare HBSS buffer with 0.4% DMSO and 5 μM LY: add 200 μL DMSO and 50 μL LY (5 mM) into 50 ml HBSS buffer (pH 7.4).
4. Measure TEER Take cell culture plate out of incubator, wash the cell monolayers with HBSS buffer, and then measure TEER values at Rm temperature. 5. Centrifuge Centrifuge the compound solution (from step 3) at 4000 rpm for 5 min before loading to donor chambers. 6. Dosing Add solution based on the volumes listed in the following table (make sure to take extra 100 μL of donor sample for TO as Backup).
7. Apical LYT0 Samples To determine LY concentration in the apical chember, take 100 μL sample from apical chambers into an opaque plate for LYT0. 8. Prewarm Prewarm apical and basolateral plates at 37° C. for about 5 min, then begin transport by placing the apical plate onto basolateral plate. 9. Incubation Keep the plates in incubator at 37° C. for 90 min. 10. Standard Curve Preparation
For 300 μM compound solution, add 6 μL of compound stock solution into 192 μL of MeOH/H2O (1:1).
Prepare Working Solution in MeOH/H2O (1:1)
3 μL (20×)+57 μL of 0.4% DMSO HBSS+60 μL ACN with IS (Osalmid or Imipramine) - - - 120 μL (1×)
11. Transport Termination Separate the apical plate from the basolateral plate after 90-min incubation.
12. Measure LY Take 100 μL samples from basolateral plate to an opaque plate as LYT90.
13. Measure LY concentrations for LYT0 and LYT90 by Fluorometer (at excitation of 485 nm/emission of 535 nm).
Study details: Test concentration 10 μM
Test systems: Caco-2/HBSS solution
Incubation conditions: 0, 90 min at 37° C.
Sample size: Duplicates (n=2)
Bioanalytical method: LC-MS/MS
For Millicell-24 Cell Culture Plates: surface area of the membrane=0.7 cm^2, VA=0.8 mL (A-to-B) or 0.4 mL (B-to-A)
1. Papp values were calculated based on calculated concentrations.
The compound numbers correspond to the compound numbers in Table 1.

Data set [1] deals with CXCR-4 transfected U87 cell line (U87.CXCR4) (Homo sapiens (Human), UniProt P61073). Nature of the data set: Intracellular CXCL-12-induced calcium mobilization assay (FLIPR). Particulars: U87.CXCR4 cells, CXCL-12 25-50 ng/mL; read-out: IC50 CXCL-12 Ca2+ flux U87.CXCR4+. Format: cell-based. How it is done: Example 28: REGA Screening Assay
Intracellular CXCL-12-Induced Calcium Mobilization Assay
Intracellular calcium mobilization induced by chemokines or chemokine-derived peptides were evaluated using a calcium responsive fluorescent probe and a FLIPR system. The CXCR-4 transfected U87 cell line (U87.CXCR4) cells were seeded in gelatine-coated black-wall 96-well plates at 20,000 cells per well and incubated for 12 hours. Cells were then loaded with the fluorescent calcium probe Fluo-2 acetoxymethyl at 4 μM final concentration in assay buffer (Hanks' balanced salt solution with 20 mM HEPES buffer and 0.2% bovine serum albumin, pH 7.4) for 45 min at 37° C. The intracellular calcium mobilization induced by the CXCL-12 (25-50 ng/mL) was then measured at 37° C. by monitoring the fluorescence as a function of time in all the wells simultaneously using a fluorometric imaging plate reader (FLIPR Tetra, Molecular Devices).

For data set [2], the target named is Jurkat cells expressing CXCR4 (Homo sapiens (Human), UniProt P61073). Nature of the data set: Chemokine (CXCL12-AF647) binding inhibition assay. The following applies: CXCL12-AF647 25 ng/mL, read-out: IC50 CXCL-12 binding Jurkat. On the procedure: Chemokine (CXCL12-AF647) Binding Inhibition Assay
Jurkat cells expressing CXCR4 were washed once with assay buffer (Hanks' balanced salt solution with 20 mM HEPES buffer and 0.2% bovine serum albumin, pH 7.4) and then incubated for 15 min at room temperature with the test compounds diluted in assay buffer at dose-dependent concentrations. Subsequently, CXCL12-AF647 (25 ng/mL) was added to the compound-incubated cells. The cells were incubated for 30 min at room temperature. Thereafter, the cells were washed twice in assay buffer, fixed in 1% paraformaldehyde in PBS, and analyzed on the FL4 channel of a FACSCalibur flow cytometer equipped with a 635-nm red diode laser (Becton Dickinson, San Jose, Calif., USA).
The percentages of inhibition of CXCL12-AF647 binding were calculated according to the formula: [1−((MFI−MFINC)/(MFIPC−MFINC))]×100 where MFI is the mean fluorescence intensity of the cells incubated with CXCL12-AF647 in the presence of the inhibitor, MFINC is the mean fluorescence intensity measured in the negative control (i.e., autofluorescence of unlabeled cells), and MFIPC is the mean fluorescence intensity of the positive control (i.e., cells exposed to CXCL12-AF647 alone).

Each structure is given as a SMILES string.

One may read the Papp A→B as how fast a substance crosses the layer from the apical side. Low readings indicate poor permeation, high ones ready permeation. By Papp B→A is commonly meant the apparent permeability from the basolateral to the apical side of a cell layer. As usually defined, the efflux ratio is a quotient of directional permeabilities that is used to spot active efflux. In general, IC50 refers to the concentration that inhibits the measured activity by half.

Chain of Jurkat cells expressing CXCR4 (P61073 whole entry): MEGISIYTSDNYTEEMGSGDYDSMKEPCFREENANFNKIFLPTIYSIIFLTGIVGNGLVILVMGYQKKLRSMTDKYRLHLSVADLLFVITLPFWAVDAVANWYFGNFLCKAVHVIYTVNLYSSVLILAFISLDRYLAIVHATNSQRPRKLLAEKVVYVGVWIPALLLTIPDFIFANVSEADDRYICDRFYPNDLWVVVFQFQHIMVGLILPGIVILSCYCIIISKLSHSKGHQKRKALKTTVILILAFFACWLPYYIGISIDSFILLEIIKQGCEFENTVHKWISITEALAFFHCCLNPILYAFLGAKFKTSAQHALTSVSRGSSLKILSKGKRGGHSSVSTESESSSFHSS
Chain of CXCR-4 transfected U87 cell line (U87.CXCR4) (P61073 whole entry): as above

Take `Cc1cccnc1[C@@H]1CCC[C@H](c2nc3cccc(N4CCN(C(C)C)CC4)n3c2CO)N1C` [Compound I-50]: in “in vitro”, the apparent permeability from apical to basolateral (Papp A→B) at 90 min, 10 μM fell in the range of 0.1 to 10 ×10⁻⁶ cm/s; the Papp B→A at 90 min, 10 μM lay within 10 to 30 ×10⁻⁶ cm/s; the efflux ratio at 90 min, 10 μM lay within 10 to 30. The IC50 in data set [1] lay within 0.01 to 100 nM. The IC50 in data set [2] fell in the range of 0.01 to 100 nM.

In the case of `CC(C)c1cccnc1[C@@H]1CCC[C@H](c2cn3c(N4CCN(C)CC4)cccc3n2)N1C` [Compound I-51], in “in vitro”, the Papp A→B at 90 min, 10 μM lay within 0.1 to 10 ×10⁻⁶ cm/s; the apparent permeability from basolateral to apical (Papp B→A) at 90 min, 10 μM fell in the range of 10 to 30 ×10⁻⁶ cm/s; the efflux ratio at 90 min, 10 μM lay within 0.1 to 10. For the same compound, in data set [1], the 50% inhibitory concentration (IC50) lay within 100 to 1000 nM. Besides, the IC50 in data set [2] was 0.01 to 100 nM.

`Cc1cccnc1[C@@H]1CCC[C@H](c2cn3c(N4CCN(C5COC5)CC4)cccc3n2)N1C` [Compound I-52]: in the data set “in vitro”, the apparent permeability from apical to basolateral (Papp A→B) at 90 min, 10 μM lay within 0.1 to 10 ×10⁻⁶ cm/s; the basolateral-to-apical permeability (Papp B→A) at 90 min, 10 μM is greater than 30 ×10⁻⁶ cm/s; the efflux ratio at 90 min, 10 μM was in the range of 10 to 30. In addition, the IC50 in data set [1] was no less than 1000 nM. For the same compound, the IC50 in data set [2] is 100 to 1000 nM.

Turning to `Cc1cccnc1[C@@H]1CCC[C@H](c2cn3c(N4CCN(C5CCOCC5)CC4)cccc3n2)N1C` [Compound I-53], in the data set “in vitro”, the Papp A→B at 90 min, 10 μM fell in the range of 0.1 to 10 ×10⁻⁶ cm/s; the apparent permeability from basolateral to apical (Papp B→A) at 90 min, 10 μM lay within 10 to 30 ×10⁻⁶ cm/s; the efflux ratio at 90 min, 10 μM lay within 0.1 to 10. The IC50 in data set [1] is 100 to 1000 nM. Moreover, the IC50 in data set [2] fell in the range of 0.01 to 100 nM.

Take `Cc1cccnc1[C@@H]1CCC[C@H](c2nc3ccccn3c2[C@@H](O)C2CCN(C)CC2)N1C` [Compound I-54]: in “in vitro”, the Papp A→B at 90 min, 10 μM lay in the range of 0.1 to 10 ×10⁻⁶ cm/s; the Papp B→A at 90 min, 10 μM was in the range of 0.1 to 10 ×10⁻⁶ cm/s; the efflux ratio at 90 min, 10 μM was greater than 30. In addition, the IC50 in data set [1] lay within 0.01 to 100 nM. For the same compound, the half-inhibitory concentration (IC50) in data set [2] fell in the range of 0.01 to 100 nM.

In the case of `Cc1cccnc1[C@@H]1CCC[C@H](c2nc3ccccn3c2[C@H](O)C2CCN(C)CC2)N1C` [Compound I-55], in the data set “in vitro”, the Papp A→B at 90 min, 10 μM was 0.1 to 10 ×10⁻⁶ cm/s; the basolateral-to-apical permeability (Papp B→A) at 90 min, 10 μM was 0.1 to 10 ×10⁻⁶ cm/s; the efflux ratio at 90 min, 10 μM was 0.1 to 10. For the same compound, the 50% inhibitory concentration (IC50) in data set [1] was no less than 1000 nM. Besides, the IC50 in data set [2] lay in the range of 0.01 to 100 nM.

In the case of `CCOCc1c([C@H]2CCC[C@@H](c3ncccc3C)N2C)nc2cccc(N3CCN(CC)CC3)n12` [Compound I-56], in the data set “in vitro”, the Papp A→B at 90 min, 10 μM lay in the range of 0.1 to 10 ×10⁻⁶ cm/s; the Papp B→A at 90 min, 10 μM lay in the range of 10 to 30 ×10⁻⁶ cm/s; the efflux ratio at 90 min, 10 μM lay in the range of 0.1 to 10. The concentration for half-maximal inhibition (IC50) in data set [1] was in the range of 0.01 to 100 nM. Further, in data set [2], the IC50 lay in the range of 0.01 to 100 nM.

`CCOCc1c([C@H]2CCC[C@@H](c3ncccc3C)N2C)nc2cccc(N3CCN(C(C)C)CC3)n12` [Compound I-57]: in the data set “in vitro”, the Papp A→B at 90 min, 10 μM fell in the range of 0.1 to 10 ×10⁻⁶ cm/s; the basolateral-to-apical permeability (Papp B→A) at 90 min, 10 μM was 10 to 30 ×10⁻⁶ cm/s; the efflux ratio at 90 min, 10 μM fell in the range of 0.1 to 10. Also, the IC50 in data set [1] lay in the range of 0.01 to 100 nM. Moreover, the IC50 in data set [2] fell in the range of 0.01 to 100 nM.

As for `CCOCc1c([C@H]2CCC[C@@H](c3ncccc3C)N2C)nc2cccc(N3CCN(C4CC4)CC3)n12` [Compound I-58], in the data set “in vitro”, the Papp A→B at 90 min, 10 μM is 10 to 30 ×10⁻⁶ cm/s; the Papp B→A at 90 min, 10 μM fell in the range of 10 to 30 ×10⁻⁶ cm/s; the efflux ratio at 90 min, 10 μM is 0.1 to 10. In addition, in data set [1], the half-maximal inhibitory concentration (IC50) was no less than 1000 nM. Also, in data set [2], the IC50 was 100 to 1000 nM.

The values above are taken from US10759796B2, “CXCR4 inhibitors and uses thereof” (X4 Pharmaceuticals, Inc., priority 2016, dated 2020).
